Assay results: paper PMC5796017, “Enantiomeric Effect of D-Amino Acid Substitution on the Mechanism of Action of α-Helical Membrane-Active Peptides” (International Journal of Molecular Sciences, 2017)
≈ marks a conversion by molar mass, not a printed value.

Columns and labels:
S. aureus ATCC25923 = test: Antimicrobial activity, microtiter dilution MIC; type: cell-based, Staphylococcus aureus; settings: G+; MH medium, 5 × 10^5 CFU/mL, 37 °C, 24 h, triplicate
Procedure: (§1) The antimicrobial activity of the peptides was determined by the standard microtiter dilution method and indicated as MIC (minimal inhibitory concentration) as described previously. Briefly, bacteria were cultured in Mueller–Hinton (MH) medium overnight at 37 °C, diluted to a final inoculum of 5 × 10^5 colony-forming units (CFU)/mL with MH and loaded into 96-well microtiter plates (90 μL/well) with serial dilution of peptides (10 μL/well), with a further incubation at 37 °C for 24 h. MIC was expressed as the lowest peptide concentration that inhibited the growth of bacteria. The antimicrobial assays were repeated in triplicate.

S. epidermidis ATCC12228 = test: Antimicrobial activity, microtiter dilution MIC; type: cell-based, Staphylococcus epidermidis; settings: G+; MH medium, 5 × 10^5 CFU/mL, 37 °C, 24 h, triplicate
Procedure: as §1

P. aeruginosa ATCC27853 = test: Antimicrobial activity, microtiter dilution MIC; type: cell-based, Pseudomonas aeruginosa; settings: G−; MH medium, 5 × 10^5 CFU/mL, 37 °C, 24 h, triplicate
Procedure: as §1

[1] = RP-HPLC retention time as relative hydrophobicity; type: physicochemical; settings: 25 °C, used by the paper as measure of relative hydrophobicity
Procedure: The RP-HPLC retention time has been widely used to represent the relative hydrophobicity of peptides in many studies.The relative hydrophobicity of the peptides was determined by the RP-HPLC retention times at 25 °C. The change in hydrophobicity of the peptides caused by D-amino acid substitutions was mainly due to the disruption of the helical structure.

HPAC = test: MTT cell viability assay; type: cell-based, human; settings: 24 h, mean ± SEM of three independent determinations
Procedure: (§2) HeLa, MIA PaCa-2, HPAC, and Bxpc-3 cells were maintained in Dulbecco’s modified Eagle medium) with 10% fetal bovine serum, penicillin (100 U/mL), and streptomycin ([…]) in a humid atmosphere at 37 °C with 5% CO2. The effect of the peptides on the survival of HeLa, MIA PaCa-2, HPAC, and Bxpc-3 cells was determined by 3-(4,5-dimethyl-2-thiazolyl)-2,5-diphenyl-2H-tetrazolium bromide (MTT) assay, as described in a previous study. Briefly, cells were seeded in 96-well plates at a density of 5000 per well. After overnight incubation, cells were incubated, in the absence, or presence of various concentrations of peptides for 24 h. Then, the formazan crystals formed by MTT were dissolved with dimethyl sulfoxide (DMSO) and the absorbance was determined at 492 nm with a microplate reader (GF-M3000; Gaomi Caihong Analytical Instruments Co., Shandong, China). The results were expressed as IC50 values, representing the concentration at which cell viability was reduced by 50%. The cytotoxicity assays were repeated in triplicate.

HeLa = test: MTT cell viability assay; type: cell-based, human; settings: 24 h, mean ± SEM of three independent determinations
Procedure: as §2

BxPC-3 = test: MTT cell viability assay; type: cell-based, human; settings: BxPC-3, MTT, 24 h; mean ± SEM of three independent determinations
Procedure: as §2

MIA PaCa-2 = test: MTT cell viability assay; type: cell-based, human; settings: MIA PaCa-2, MTT, 24 h; mean ± SEM of three independent determinations
Procedure: as §2

[2] = Circular dichroism (CD) secondary structure; type: physicochemical; settings: for [θ]222, benign / [θ]222, 50% TFE: CD, 75 μM peptide, 25 °C; for [θ]222, benign: KP buffer (100 mM KCl, 50 mM KH2PO4/K2HPO4, pH 7.4); for [θ]222, 50% TFE / α-Helix (%), 50% TFE (relative helicity): KP buffer with 50% TFE; for α-Helix (%), 50% TFE (relative helicity) / α-Helix (%), benign: relative to molar ellipticity of V13K in 50% TFE; for α-Helix (%), benign: KP buffer
Text: The influence of the amino acid substitutions on the peptide secondary structure were investigated using circular dichroism (CD) spectroscopy under benign conditions (KP buffer) and under conditions designed to mimic the hydrophobic environment of the membrane (KP buffer with 50% TFE). D-amino acid substitutions reduced the helicity of the peptide analogs relative to that of peptide V13K, in both KP buffer and KP buffer with 50% TFE. […] As shown in Table 2 and Figure S1, the values of the relative helicity of peptides with polar face substitutions are in the order of K14D (76.99%) > S11D/K14D (51.33%) > S11D/K14D/T15D (38.67%). Similarly, the relative helicity of the peptides with substitutions on the non-polar face follows the same trend: A12D (70.83%) > F9D/A12D (38.26%) > F9D/A12D/V16D (36.41%). Since the values of the relative helicity of the peptides with D-amino acid substitutions on the non-polar face were less than those peptide analogs with the same number of D-amino acid substitutions on the polar face, it is clear that the amino acid residues on the non-polar face may be more important for stabilizing the α-helical structure than residues on the polar face.
The secondary structures of the peptides were examined using a Jasco J-810 CD spectrometer (Jasco, Easton, MD, USA) at 25 °C as described previously. […] The mean residue molar ellipticities were calculated according to the equation [θ] = θ/10lCMn, in which, θ represents the ellipticity in millidegrees, l is the optical path length of the cuvette in centimeters, CM is the peptide concentration in mol/L, and n is the number of residues in the peptide. The mean residue molar ellipticities at 222 nm, [θ]222 (degree·cm^2·dmol^−1), were used to calculate the relative helical content of the peptides.

E. coli ATCC25922 = test: Antimicrobial activity, microtiter dilution MIC; type: cell-based, Escherichia coli; settings: G−; MH medium, 5 × 10^5 CFU/mL, 37 °C, 24 h, triplicate
Procedure: as §1

[3] = test system: human red blood (hRBC) cells; test: Hemolytic activity assay; type: cell-based; settings: for MHC (minimal hemolytic concentration): 2% human RBC in PBS, 37 °C, 2 h, absorbance 578 nm, triplicate; for Hemolytic activity compared with V13K: human red blood cells
Procedure: The […] of the peptides was measured by a hemolytic activity assay as described previously. Briefly, healthy human RBCs were collected using an anticoagulation tube with EDTAK2 and centrifuged at 1000 rpm for 5 min. The erythrocytes were washed three times, then diluted to a concentration of 2% in phosphate-buffered saline (PBS). The peptides were serially diluted in PBS and 70 μL of the peptide solutions and 2% RBC suspension were added simultaneously to each well of a 96-well plate (round bottom) for a further incubation at 37 °C for 2 h. Then, the plates were centrifuged for 10 min at 3000 rpm and the supernatant (90 μL) was transferred to a 96-well plate (flat bottom). The absorbance of the supernatant was measured on a microplate reader at 578 nm. Erythrocytes in PBS and distilled water were used as the negative (0%) and positive (100%) controls, respectively. The hemolytic activity was calculated as the percentage of experimental group over positive control (100%), after subtraction of negative control (0%). The hemolytic assays were repeated in triplicate.

Row | Structure (SMILES) | MIC (S. aureus ATCC25923) [µM] | MIC (S. epidermidis ATCC12228) [µM] | MIC (P. aeruginosa ATCC27853) [µM] | tR (RP-HPLC retention time), relative hydrophobicity [1] [min] | IC50 (HPAC) [µM] | IC50 (HeLa) [µM] | IC50 (BxPC-3) [µM] | IC50 (MIA PaCa-2) [µM] | [θ]222, benign [2] [degree·cm^2·dmol^−1] | [θ]222, 50% TFE [2] | α-Helix (%), 50% TFE (relative helicity) [2] [%] | α-Helix (%), benign [2] [%] | MIC (E. coli ATCC25922) [µM] | MHC (minimal hemolytic concentration) [3] [µM] | Hemolytic activity compared with V13K [3]
1 | CC[C@H](C)[C@H](NC(=O)[C@H](C)NC(=O)[C@H](CCCCN)NC(=O)[C@H](CC(C)C)NC(=O)[C@H](C)NC(=O)[C@@H](NC(=O)[C@H](Cc1c[nH]cn1)NC(=O)[C@H](CC(C)C)NC(=O)[C@H](NC(=O)[C@@H](NC(=O)[C@H](CCCCN)NC(=O)[C@H](CCCCN)NC(=O)[C@@H](C)NC(=O)[C@H](CO)NC(=O)[C@H](CCCCN)NC(=O)[C@H](Cc1ccccc1)NC(=O)[C@@H](NC(=O)[C@H](CCCCN)NC(=O)[C@H](CC(C)C)NC(=O)[C@H](Cc1ccccc1)NC(=O)[C@H](CO)NC(=O)[C@H](CCCCN)NC(=O)[C@H](Cc1c[nH]c2ccccc12)NC(=O)[C@H](CCCCN)NC(C)=O)[C@@H](C)O)[C@@H](C)O)C(C)C)[C@@H](C)O)C(=O)N[C@@H](CO)C(=O)N[C@@H](CO)C(N)=O [A12D/V16D] | 125 (≈ 374 µg/mL) | 125 (≈ 374 µg/mL) | 32 (≈ 95.7 µg/mL) | 39.79 | 41.4 ± 1.4 | 60.1 ± 1.2 | 125 ± 5.9 | 46.2 ± 3 | −3435.72 | −23,452.9 degree·cm^2·dmol^−1 | 46.42 | 6.8 | 125 (≈ 374 µg/mL) | >500 | much less hemolytic activity than V13K
2 | CC[C@H](C)[C@H](NC(=O)[C@H](C)NC(=O)[C@H](CCCCN)NC(=O)[C@H](CC(C)C)NC(=O)[C@H](C)NC(=O)[C@@H](NC(=O)[C@H](Cc1c[nH]cn1)NC(=O)[C@H](CC(C)C)NC(=O)[C@H](NC(=O)[C@@H](NC(=O)[C@H](CCCCN)NC(=O)[C@H](CCCCN)NC(=O)[C@@H](C)NC(=O)[C@H](CO)NC(=O)[C@H](CCCCN)NC(=O)[C@@H](Cc1ccccc1)NC(=O)[C@@H](NC(=O)[C@H](CCCCN)NC(=O)[C@H](CC(C)C)NC(=O)[C@H](Cc1ccccc1)NC(=O)[C@H](CO)NC(=O)[C@H](CCCCN)NC(=O)[C@H](Cc1c[nH]c2ccccc12)NC(=O)[C@H](CCCCN)NC(C)=O)[C@@H](C)O)[C@@H](C)O)C(C)C)[C@@H](C)O)C(=O)N[C@@H](CO)C(=O)N[C@@H](CO)C(N)=O [F9D/A12D/V16D] | 125 (≈ 374 µg/mL) | 125 (≈ 374 µg/mL) | 125 (≈ 374 µg/mL) | 39.06 | 95.6 ± 1.8 | 125 ± 3.4 | 125 ± 1.8 | 57.9 ± 2.8 | −1907.83 | −18,393.1 degree·cm^2·dmol^−1 | 36.41 | 3.8 | 125 (≈ 374 µg/mL) | >500 | much less hemolytic activity than V13K
3 | CC[C@H](C)[C@H](NC(=O)[C@H](C)NC(=O)[C@H](CCCCN)NC(=O)[C@H](CC(C)C)NC(=O)[C@H](C)NC(=O)[C@@H](NC(=O)[C@H](Cc1c[nH]cn1)NC(=O)[C@H](CC(C)C)NC(=O)[C@@H](NC(=O)[C@@H](NC(=O)[C@H](CCCCN)NC(=O)[C@H](CCCCN)NC(=O)[C@@H](C)NC(=O)[C@H](CO)NC(=O)[C@H](CCCCN)NC(=O)[C@@H](Cc1ccccc1)NC(=O)[C@@H](NC(=O)[C@H](CCCCN)NC(=O)[C@H](CC(C)C)NC(=O)[C@H](Cc1ccccc1)NC(=O)[C@H](CO)NC(=O)[C@H](CCCCN)NC(=O)[C@H](Cc1c[nH]c2ccccc12)NC(=O)[C@H](CCCCN)NC(C)=O)[C@@H](C)O)[C@@H](C)O)C(C)C)[C@@H](C)O)C(=O)N[C@@H](CO)C(=O)N[C@@H](CO)C(N)=O [F9D/A12D] | 125 (≈ 374 µg/mL) | 64 (≈ 191 µg/mL) | 32 (≈ 95.7 µg/mL) | 40.04 | 42.4 ± 3 | 59.8 ± 0.5 | 125 ± 3.7 | 38.8 ± 2.9 | −2319.89 | −19,328.6 degree·cm^2·dmol^−1 | 38.26 | 4.6 | 125 (≈ 374 µg/mL) | 250 | –
4 | CC[C@H](C)[C@H](NC(=O)[C@H](C)NC(=O)[C@H](CCCCN)NC(=O)[C@H](CC(C)C)NC(=O)[C@H](C)NC(=O)[C@@H](NC(=O)[C@H](Cc1c[nH]cn1)NC(=O)[C@H](CC(C)C)NC(=O)[C@@H](NC(=O)[C@H](NC(=O)[C@@H](CCCCN)NC(=O)[C@H](CCCCN)NC(=O)[C@H](C)NC(=O)[C@H](CO)NC(=O)[C@H](CCCCN)NC(=O)[C@H](Cc1ccccc1)NC(=O)[C@@H](NC(=O)[C@H](CCCCN)NC(=O)[C@H](CC(C)C)NC(=O)[C@H](Cc1ccccc1)NC(=O)[C@H](CO)NC(=O)[C@H](CCCCN)NC(=O)[C@H](Cc1c[nH]c2ccccc12)NC(=O)[C@H](CCCCN)NC(C)=O)[C@@H](C)O)[C@H](C)O)C(C)C)[C@@H](C)O)C(=O)N[C@@H](CO)C(=O)N[C@@H](CO)C(N)=O [K14D/T15D] | 64 (≈ 191 µg/mL) | 16 (≈ 47.9 µg/mL) | 32 (≈ 95.7 µg/mL) | 40.41 | 22.5 ± 0.5 | 31.6 ± 2.1 | 24.1 ± 5.5 | 47.1 ± 5.3 | −1862.4 | −28,551.5 degree·cm^2·dmol^−1 | 56.51 | 3.7 | 64 (≈ 191 µg/mL) | 250 | –
